Experiments:
[1] = Solution stability, Example A (pH 7.4 phosphate buffer/MeOH, LC/MS); format: physicochemical
Experimental: The following comparative procedures were used.
A 1.05 mg/mL stock solution (5 mL) of Ex. 45 in MeOH was prepared. From the stock solution was taken out 1.25 mL and diluted to 25 mL with the addition of 23.75 mL of 10 mM phosphate buffer (pH 7.4)/MeOH (70/30 v/v). This new solution was split into three. One solution was incubated at 4° C., another incubated at 25° C. and the third incubated at 40° C. Each solution was analyzed by LC/MS after day 1, day 2 and day 6 and compared to a standard calibration curve for Ex. 45.
In the following study, the solution stability of the compound of Example 45 was measured and compared to that of Compound Z. The compound of Example 45 is an iminothiadiazine dioxide compound of the invention. Compound Z is the corresponding iminopyrimidinone compound. The structures of the compound of Example 45 and of Compound Z are shown below. Studies were performed in aqueous pH 7.4 buffer containing methanol at 4° C., 25° C. and 40° C.

[2] = Solution stability, Example B (50 mM pH 7.4 phosphate buffer, 25° C., LC/MS); format: physicochemical
Experimental: Stock solutions of the tested compounds were prepared by dissolving about 3 mg of each compound in 3 mL of acetonitrile. Standards for test compounds were prepared by diluting 1 mL of the stock solution with an additional 4 mL of acetonitrile. These standards were stored at 4° C. Samples were prepared by diluting 1 mL of the stock solution with 4 mL of 50 mM pH 7.4 phosphate buffer. These samples were stored at 25° C. in the absence of light. Standards and samples were analyzed by LC/MS initially and at day 1, day 4, and day 6.
Mobile phase A: 10 mM pH 5 ammonium acetate buffer:methanol (90:10)
Mobile phase B: 10 mM pH 5 ammonium acetate buffer:methanol (10:90)
Column: Zorbax SB-Phenyl 4.6×50 mm, 1.8 μm
Column temperature: 40° C.
Detectors: UV at 220 nm and 236 nm
MS, ES ionization, positive mode, for identification only at final time point.
The terms reported in the tables below have the following meanings:
Area % is the integration of peak from HPLC as reported by Waters Empower II software.
RRT is the relative retention time of new product compared to the standard of the test compound.
ND stands for no peak detected by the UV detector.
* stands for no ion detected by the mass spectrometer.
In the following study, the solution stability of the compound of Example 47 was measured and compared to that of Compound Y. The compound of Example 47 is an iminothiadiazine dioxide compound of the invention. Compound Y is the corresponding iminopyrimidinone compound. The structures of the compound of Example 47 and of Compound Y are shown below. Studies were performed in pH 7.4 buffer at 25° C.

[3] = Standard (acetonitrile, stored at 4° C.)

Row | Structure (SMILES) | Assay (Area %), class symbol ([1]; pH 7.4, 40° C., time not given) | Assay (Area %), class symbol ([1]; pH 7.4, 4° C., 2 days) | Assay (Area %), class symbol ([1]; pH 7.4, 4° C., 6 days) | Assay (Area %), class symbol ([1]; pH 7.4, 4° C., time not given) | Assay (Area %), class symbol ([1]; pH 7.4, 25° C., 2 days) | Assay (Area %), class symbol ([1]; pH 7.4, 25° C., 6 days) | Assay (Area %), class symbol ([1]; pH 7.4, 25° C., time not given) | Assay (Area %), class symbol ([1]; pH 7.4, 40° C., 2 days) | Assay (Area %), class symbol ([1]; pH 7.4, 40° C., 6 days) | Area %, Day 1; compound peak (RRT 1.00) ([2]; Sample at pH 7.4, 25° C.) [Area %] | Area %, Day 4; compound peak (RRT 1.00) ([2]; Sample at pH 7.4, 25° C.) [Area %] | Area %, Day 6; compound peak (RRT 1.00) ([2]; Sample at pH 7.4, 25° C.) [Area %] | Area %, Initial; compound peak (RRT 1.00) ([2]; Sample at pH 7.4, 25° C.) [Area %] | Area %, Day 1; compound peak (RRT 1.00) [2, 3] [Area %] | Area %, Day 4; compound peak (RRT 1.00) [2, 3] [Area %] | Area %, Day 6; compound peak (RRT 1.00) [2, 3] [Area %] | Area %, Initial; compound peak (RRT 1.00) [2, 3] [Area %]
1 | CN1C(=N)N[C@](C)(c2cc(-c3cccc(C#N)c3)cs2)CS1(=O)=O [Example 45] | — ((—) stands for >20% degradation) | – | – | – | – | – | – | – | – | – | – | – | – | – | – | – | –
2 | CN1C(=N)N[C@](C)(c2cc(-c3cccc(C#N)c3)cs2)CC1=O [Compound Z] | — ((—) stands for >20% degradation) | — ((—) stands for >20% degradation) | — ((—) stands for >20% degradation) | — ((—) stands for >20% degradation) | — ((—) stands for >20% degradation) | — ((—) stands for >20% degradation) | — ((—) stands for >20% degradation) | — ((—) stands for >20% degradation) | — ((—) stands for >20% degradation) | – | – | – | – | – | – | – | –
3 | CC#Cc1cncc(-c2csc([C@]3(C)CS(=O)(=O)N(C)C(=N)N3)c2)c1 [Example 47] | – | – | – | – | – | – | – | – | – | 98.56 | 98.53 | 98.53 | 98.55 | 98.55 | 98.52 | 98.52 | 98.53

— patent US9687494B2, “Iminothiadiazine dioxide compounds as BACE inhibitors, compositions, and their use” (Merck Sharp & Dohme Corp., priority 2009, dated 2017)
